According to publication PMC12587545, “Noncytotoxic polymyxin derivatives enhance antibiotic action against multidrug-resistant Gram-negative bacteria” (Antimicrobial Agents and Chemotherapy, 2025):
Values joined by “and” are separate entries in the source; they are usually repeats but may differ in a detail not shown here. Equal values may be shown once.

Key:
[1] = tested on: A. baumannii; assay: Checkerboard assay (antibiotic potentiation); assay type: cell-based, Acinetobacter baumannii; parameters: key to FIC index: sum of FICs; ≤0.5 synergistic, 0.5–4 additive, >4 antagonistic; details: for MICantibiotic: antibiotic alone
[2] = tested on: E. cloacae; assay: Checkerboard assay (antibiotic potentiation); assay type: cell-based, Enterobacter cloacae; details: E. cloacae 121887 (colistin-resistant)
Experimental: The interaction between the compounds and the antibiotics was evaluated using the fractional inhibitory concentration (FIC) index. FIC indices of ≤0.5 is synergistic, 0.5 < × ≤ 4 is additive, whereas >4 is antagonistic ([34]). […] .
The bacterial isolates were acquired from ATCC or the Canadian Ward Surveillance (CANWARD) study ([56]). CANWARD isolates were collected from infected patients admitted to participating medical centers across Canada.
(§1) The antibiotic and compounds were serially diluted 2-fold in CAMHB along the x- and y-axis, respectively, on a 96-well plate that was subsequently incubated with equal volumes of bacterial inoculum overnight at 37°C. Wells containing only media were used as negative controls, and wells containing only bacteria were used as positive controls. Synergy was measured by the FIC index, which is the summation of the individual FICs of the antibiotic and the compound. The FIC is calculated by dividing the MIC of one agent in the presence of another by the MIC of the agent alone. Turbidity was confirmed with a Molecular Devices (United States) EMax Plus microplate reader at a wavelength of 590 nm. The FBS studies were conducted by following a previously published protocol ([29], [50]). The FBS was inactivated by heating at 56°C for 30 min with constant swirling.

[3] = tested on: K. pneumoniae; assay: Checkerboard assay (antibiotic potentiation); assay type: cell-based, Klebsiella pneumoniae; details: for MICantibiotic + compound: antibiotic MIC with 8 µg/mL (5 µM) compound 1; for MICantibiotic: antibiotic alone
Experimental: (§2) The interaction between the compounds and the antibiotics was evaluated using the fractional inhibitory concentration (FIC) index. FIC indices of ≤0.5 is synergistic, 0.5 < × ≤ 4 is additive, whereas >4 is antagonistic ([34]).
(§3) Synergy was measured by the FIC index, which is the summation of the individual FICs of the antibiotic and the compound. The FIC is calculated by dividing the MIC of one agent in the presence of another by the MIC of the agent alone. […] The FBS studies were conducted by following a previously published protocol ([29], [50]). The FBS was inactivated by heating at 56°C for 30 min with constant swirling.

[4] = tested on: P. aeruginosa; assay: Checkerboard assay (antibiotic potentiation); assay type: cell-based, Pseudomonas aeruginosa; details: for MICantibiotic: antibiotic alone
[5] = tested on: E. coli; assay: Checkerboard assay (antibiotic potentiation); assay type: cell-based, Escherichia coli; details: for Interpretation: antibiotic + compound 1; for MICantibiotic + compound: antibiotic MIC with 8 µg/mL (5 µM) compound 1; for MICantibiotic: antibiotic alone; for Potentiation: of antibiotic by 8 µg/mL (5 µM) compound 1
Experimental: as §2, §3

[6] = tested on: MDR Gram-negative bacteria clinical isolates; assay: Checkerboard assay, summary over strains; assay type: cell-based; details: of all 14 clinical isolates; number (%)
Experimental: as §2, §1

[7] = A. baumannii 110193, antibiotic + compound 1
[8] = A. baumannii ATCC 17978, antibiotic + compound 1
[9] = K. pneumoniae 113250 (colistin-resistant)
[10] = P. aeruginosa 262-101856, antibiotic + compound 1
[11] = P. aeruginosa 264-105354, antibiotic + compound 1
[12] = P. aeruginosa 114228 (colistin-resistant), antibiotic + compound 1
[13] = E. coli 94393 (colistin-resistant)
[14] = E. coli 94474 (colistin-resistant)

CN(C)c1ccc(O)c2c1C[C@H]1C[C@H]3[C@H](N(C)C)C(O)=C(C(N)=O)C(=O)[C@@]3(O)C(O)=C1C2=O [Minocycline]
Interpretation ([1]; A. baumannii 92247 (colistin-resistant), antibiotic + compound 1): Additive (0.5 < × ≤ 4 is additive) | MICantibiotic + compound ([1]; A. baumannii 92247 (colistin-resistant), antibiotic MIC with 4 µg/mL (2 µM) compound 1): 0.25 µg/mL | MICantibiotic ([1]; A. baumannii 92247 (colistin-resistant)): 0.25 µg/mL | Potentiation ([1]; A. baumannii 92247 (colistin-resistant), of antibiotic by 4 µg/mL (2 µM) compound 1): 1 fold | FIC index [1, 7]: 0.75 | Interpretation [1, 7]: Additive (0.5 < × ≤ 4 is additive) | MICantibiotic + compound ([1]; A. baumannii 110193, antibiotic MIC with 4 µg/mL (2 µM) compound 1): 2 µg/mL | MICantibiotic ([1]; A. baumannii 110193): 2 µg/mL | Potentiation ([1]; A. baumannii 110193, of antibiotic by 4 µg/mL (2 µM) compound 1): 1 fold | Interpretation ([1]; A. baumannii AB027, antibiotic + compound 1): Additive (0.5 < × ≤ 4 is additive) | MICantibiotic + compound ([1]; A. baumannii AB027, antibiotic MIC with 4 µg/mL (2 µM) compound 1): 1 µg/mL | MICantibiotic ([1]; A. baumannii AB027): 2 µg/mL | Potentiation ([1]; A. baumannii AB027, of antibiotic by 4 µg/mL (2 µM) compound 1): 2 fold | Interpretation ([1]; A. baumannii AB031, antibiotic + compound 1): Additive (0.5 < × ≤ 4 is additive) | MICantibiotic + compound ([1]; A. baumannii AB031, antibiotic MIC with 4 µg/mL (2 µM) compound 1): 1 µg/mL | MICantibiotic ([1]; A. baumannii AB031): 2 µg/mL | Potentiation ([1]; A. baumannii AB031, of antibiotic by 4 µg/mL (2 µM) compound 1): 2 fold | FIC index [1, 8]: 0.254 | Interpretation [1, 8]: Synergy (FIC indices of ≤0.5 is synergistic) | Interpretation ([1]; A. baumannii ATCC 17978, antibiotic + compound 3): Additive (0.5 < × ≤ 4 is additive) | MICantibiotic + compound ([1]; A. baumannii ATCC 17978, antibiotic MIC with 8 µg/mL (5 µM) compound 3): 0.125 µg/mL | MICantibiotic + compound ([1]; A. baumannii ATCC 17978, antibiotic MIC with ¼ MIC (≤5 µM) of compound 1): 0.004 µg/mL | Potentiation ([1]; A. baumannii ATCC 17978, of antibiotic by 8 µg/mL (5 µM) compound 3): 1 fold | Potentiation ([1]; A. baumannii ATCC 17978, of antibiotic by ¼ MIC (≤5 µM) of compound 1): 256 fold | Interpretation ([2]; antibiotic + compound 1): Additive (0.5 < × ≤ 4 is additive) | MICantibiotic + compound ([2]; antibiotic MIC with 8 µg/mL (5 µM) compound 1): 0.5 µg/mL | MICantibiotic ([2]; antibiotic alone): 0.5 µg/mL | Potentiation ([2]; of antibiotic by 8 µg/mL (5 µM) compound 1): 1 fold | MICantibiotic + compound [3, 9]: >4 µg/mL | MICantibiotic [3, 9]: >4 µg/mL | Interpretation ([3]; K. pneumoniae 116381, antibiotic + compound 1): Synergy (FIC indices of ≤0.5 is synergistic) | MICantibiotic + compound ([3]; K. pneumoniae 116381): 4 µg/mL | MICantibiotic ([3]; K. pneumoniae 116381): 128 µg/mL | Potentiation ([3]; K. pneumoniae 116381, of antibiotic by 8 µg/mL (5 µM) compound 1): 32 fold | Interpretation ([4]; P. aeruginosa 259-96916, antibiotic + compound 1): Synergy (FIC indices of ≤0.5 is synergistic) | MICantibiotic + compound ([4]; P. aeruginosa 259-96916, antibiotic MIC with 8 µg/mL (5 µM) compound 1): 0.5 µg/mL | MICantibiotic ([4]; P. aeruginosa 259-96916): 64 µg/mL | Potentiation ([4]; P. aeruginosa 259-96916, of antibiotic by 8 µg/mL (5 µM) compound 1): 128 fold | FIC index [4, 10]: x < 0.078 | Interpretation [4, 10]: Synergy (FIC indices of ≤0.5 is synergistic) | MICantibiotic + compound ([4]; P. aeruginosa 262-101856, antibiotic MIC with 8 µg/mL (5 µM) compound 1): 2 µg/mL | MICantibiotic ([4]; P. aeruginosa 262-101856): >128 µg/mL | Potentiation ([4]; P. aeruginosa 262-101856, of antibiotic by 8 µg/mL (5 µM) compound 1): ≥128-fold | FIC index [4, 11]: x < 0.070 | Interpretation [4, 11]: Synergy (FIC indices of ≤0.5 is synergistic) | MICantibiotic + compound ([4]; P. aeruginosa 264-105354, antibiotic MIC with 8 µg/mL (5 µM) compound 1): 0.5 µg/mL | MICantibiotic ([4]; P. aeruginosa 264-105354): >64 µg/mL | Potentiation ([4]; P. aeruginosa 264-105354, of antibiotic by 8 µg/mL (5 µM) compound 1): ≥256-fold | Interpretation ([4]; P. aeruginosa 101243 (colistin-resistant), antibiotic + compound 1): Synergy (FIC indices of ≤0.5 is synergistic) | MICantibiotic + compound ([4]; P. aeruginosa 101243 (colistin-resistant), antibiotic MIC with 8 µg/mL (5 µM) compound 1): 4 µg/mL | MICantibiotic ([4]; P. aeruginosa 101243 (colistin-resistant)): 16 µg/mL | Potentiation ([4]; P. aeruginosa 101243 (colistin-resistant), of antibiotic by 8 µg/mL (5 µM) compound 1): 4 fold | FIC index [4, 12]: x < 0.313 | Interpretation [4, 12]: Synergy (FIC indices of ≤0.5 is synergistic) | MICantibiotic + compound ([4]; P. aeruginosa 114228 (colistin-resistant), antibiotic MIC with 8 µg/mL (5 µM) compound 1): 16 µg/mL | MICantibiotic ([4]; P. aeruginosa 114228 (colistin-resistant)): >64 µg/mL | Potentiation ([4]; P. aeruginosa 114228 (colistin-resistant), of antibiotic by 8 µg/mL (5 µM) compound 1): ≥8-fold | Interpretation ([4]; P. aeruginosa PAO1, antibiotic + compound 1): Synergy (FIC indices of ≤0.5 is synergistic) | Interpretation ([4]; P. aeruginosa PAO1, antibiotic + compound 3): Additive (0.5 < × ≤ 4 is additive) | MICantibiotic + compound ([4]; P. aeruginosa PAO1, antibiotic MIC with 8 µg/mL (5 µM) compound 1): 0.5 µg/mL | MICantibiotic + compound ([4]; P. aeruginosa PAO1, antibiotic MIC with 8 µg/mL (5 µM) compound 3): 64 µg/mL | MICantibiotic ([4]; P. aeruginosa PAO1): 64 µg/mL and 32 µg/mL | Potentiation ([4]; P. aeruginosa PAO1, of antibiotic by 8 µg/mL (5 µM) compound 1): 64 fold | Potentiation ([4]; P. aeruginosa PAO1, of antibiotic by 8 µg/mL (5 µM) compound 3): 1 fold | Interpretation [5, 13]: Synergy (FIC indices of ≤0.5 is synergistic) | MICantibiotic + compound [5, 13]: 0.125 µg/mL | MICantibiotic [5, 13]: 0.5 µg/mL | Potentiation [5, 13]: 4 fold | Interpretation [5, 14]: Synergy (FIC indices of ≤0.5 is synergistic) | MICantibiotic + compound [5, 14]: 8 µg/mL | MICantibiotic [5, 14]: 64 µg/mL | Potentiation [5, 14]: 8 fold | clinical isolates in which the antibiotic was synergized by compound 1 [6]: 8 (57%) strains
